In US8906908B2, “Hydroxybupropion analogues for treating drug dependence” (priority 2010, dated 2014):
Where two headings read alike, the source gives them in different places.

Tests used:
[1] = molecular target: T1, NE transporters [h(NET)] (Homo sapiens, UniProt P23975); assay: Inhibition of [3H]norepinephrine uptake into HEK293 cells stably expressing hNET; assay type: cell-based; conditions: for IC50: HEK293-hNET, mean ± standard error of three independent experiments, read-out: monoamine uptake inhibition IC50 [3H]NE
T1 construct: expressed in transfected cells; host or cells: HEK-293
T1 sequence (P23975 whole entry): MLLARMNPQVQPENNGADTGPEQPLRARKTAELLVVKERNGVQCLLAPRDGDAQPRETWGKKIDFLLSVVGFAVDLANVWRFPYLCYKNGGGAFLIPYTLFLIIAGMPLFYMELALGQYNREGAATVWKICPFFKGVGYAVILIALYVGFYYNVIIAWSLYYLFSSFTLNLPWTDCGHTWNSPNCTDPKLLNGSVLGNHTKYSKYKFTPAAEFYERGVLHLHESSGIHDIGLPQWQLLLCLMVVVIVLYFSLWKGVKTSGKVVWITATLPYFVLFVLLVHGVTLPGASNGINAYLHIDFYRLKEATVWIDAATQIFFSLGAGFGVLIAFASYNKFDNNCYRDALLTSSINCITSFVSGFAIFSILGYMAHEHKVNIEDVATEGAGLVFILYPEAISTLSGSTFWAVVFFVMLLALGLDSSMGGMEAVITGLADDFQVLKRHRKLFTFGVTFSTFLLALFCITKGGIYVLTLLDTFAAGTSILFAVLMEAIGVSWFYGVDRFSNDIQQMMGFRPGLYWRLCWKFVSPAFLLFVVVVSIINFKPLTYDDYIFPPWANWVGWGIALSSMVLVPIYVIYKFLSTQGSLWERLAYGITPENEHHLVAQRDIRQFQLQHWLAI
Excerpt: (§1) Cell Lines and Culture: Human embryonic kidney (HEK-293) cells stably expressing human DAT, NET or SERT were maintained as previously described in Eshleman, A. J.; Carmolli, M.; Cumbay, M.; Martens, C. R.; Neve, K. A.; Janowsky, A., J. Pharmacol. Exp. Ther. 1999, 289, (2), 877-885. Use was made of several human cell lines that naturally or heterologously express specific, functional, human nAChR subtypes. Cells of the TE671/RD line naturally expresses muscle-type nAChR (a1β1γδ- or α1*-nAChR), and SH-SY5Y neuroblastoma cells naturally expresses autonomic α3β4*-nAChRs (containing α3, β4, probably α5, and sometimes β2 subunits). Different clones of SH-EP1 epithelial cell lines have been engineered to heterologously express either α4β2-nAChR, which are thought to be the most abundant, high affinity nicotine-binding nAChR in mammalian brain, or α4β4-nAChR, another possible brain nAChR subtype (SH-EP1-hα4β2 or α4β4 cells, respectively). These cells were maintained as low passage number (1-26 from our frozen stocks) cultures to ensure stable expression of native or heterologously-expressed nAChR as previously described (see Lukas, R. J.; Fryer, J. D.; Eaton, J. B.; L., G. C., Some methods for studies of nicotinic acetylcholine receptor pharmacology, in Nicotinic receptors and the Nervous System, Levine, E. D., Ed. CRC Press: Boca Raton, 2002; pp 3-27, incorporated herein by reference in its entirety). Cells were passaged once weekly by splitting just-confluent cultures 1/300 (TE671/RD), 1/5 (SH-SY5Y), or 1/20 (transfected SH-EP1) in serum-supplemented medium to maintain log-phase growth.
See, for example, Damaj, M. I.; Carroll, F. I.; Eaton, J. B.; Navarro, H. A.; Blough, B. E.; Mirza, S.; Lukas, R. J.; Martin, B. R., Mol. Pharmacol. 2004, 66, (3), 675-682 and Eshleman, A. J.; Carmolli, M.; Cumbay, M.; Martens, C. R.; Neve, K. A.; Janowsky, A., J. Pharmacol. Exp. Ther. 1999, 289, (2), 877-885, both incorporated by reference herein in their entireties.

[2] = tested on: Male Institute of Cancer Research (ICR) mice; assay: Hot-plate test, blockade of nicotine-induced antinociception; assay type: in vivo; conditions: pretreatment 15 min before nicotine 2.5 mg/kg s.c., tested 5 min after nicotine
Excerpt: (§2) Animals: Male Institute of Cancer Research (ICR) mice (weighing 20-25 g) obtained from Harlan (Indianapolis, Ind.) were used throughout the study. Animals were housed in an Association for Assessment and Accreditation of Laboratory Animal Care-approved facility, were placed in groups of six, and had free access to food and water. Studies were approved by the Institutional Animal Care and Use Committee of Virginia Commonwealth University.
Hot-Plate Test: Mice were placed into a 10-cm wide glass cylinder on a hot plate (Thermojust Apparatus) maintained at 55° C. for assessment of pain responses mediated at supraspinal levels. To minimize tissue damage, a maximum exposure to the hot plate 40 s was imposed. Measures of control latencies (time until the animal jumped or licked its paws; typically 8-12 s) were done twice for stimuli applied at least 10 min apart for each mouse. Antinociceptive responses after test drug administrations were determined and calculated as the % MPE, where % MPE=[(test latency in s−control latency in s)/(40 s−control latency in s)×100]. Groups of 8 to 12 animals were used for each drug condition. […] The animals were then tested 5 min after administration of a subcutaneous dose of 2.5 mg/kg nicotine.

[3] = tested on: Male Institute of Cancer Research (ICR) mice; assay: Tail-flick test, blockade of nicotine-induced antinociception; assay type: in vivo; conditions: mice, pretreatment 15 min before nicotine 2.5 mg/kg s.c., tested 5 min after nicotine; for ED50: Mus musculus, 5 min, read-out: AD50 Tail-flick
Excerpt: as §2
Tail-Flick Test: Antinociception for pain mediated at the spinal level was assessed by the tail-flick method of D'Amour, F. E.; Smith, D. L., J. Pharmacol. Exp. Ther. 1941, 72, 74-79, incorporated herein by reference in its entirety. In brief, mice were lightly restrained while a radiant heat source was shone onto the upper portion of the tail. To minimize tissue damage, a maximum latency of 10 s was imposed. Latency to remove the tail from the heat source was recorded for each animal. […] Antinociceptive response was calculated as the percentage of maximum possible effect (% MPE), where % MPE=[(test control)/(10 control)]×100.

[4] = molecular target: T2, muscle-type nAChR (α1β1γδ- or α1*-nAChR) (Homo sapiens, UniProt P02708+P07510+P11230+Q07001); assay: 86Rb+ efflux nAChR functional assay, TE671/RD cells; assay type: cell-based; conditions: parentheses = S.E.M. as multiplication/division factor
T2 construct: Cells of the TE671/RD line naturally expresses muscle-type nAChR; endogenous in cells; host or cells: TE671/RD cells
T2 sequence (P02708 21-457): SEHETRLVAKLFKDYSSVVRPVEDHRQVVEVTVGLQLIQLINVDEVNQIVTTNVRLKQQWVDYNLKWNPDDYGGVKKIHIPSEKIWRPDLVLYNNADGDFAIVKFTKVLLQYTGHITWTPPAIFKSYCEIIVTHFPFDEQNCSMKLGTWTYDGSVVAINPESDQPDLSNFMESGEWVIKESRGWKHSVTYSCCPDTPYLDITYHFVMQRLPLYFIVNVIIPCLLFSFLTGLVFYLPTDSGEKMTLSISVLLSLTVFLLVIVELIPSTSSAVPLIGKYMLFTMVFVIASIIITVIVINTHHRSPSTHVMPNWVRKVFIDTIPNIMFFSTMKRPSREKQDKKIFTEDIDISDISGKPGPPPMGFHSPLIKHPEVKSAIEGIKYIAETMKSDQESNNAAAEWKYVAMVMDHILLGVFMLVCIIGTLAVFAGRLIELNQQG
T2 sequence (P11230 24-501): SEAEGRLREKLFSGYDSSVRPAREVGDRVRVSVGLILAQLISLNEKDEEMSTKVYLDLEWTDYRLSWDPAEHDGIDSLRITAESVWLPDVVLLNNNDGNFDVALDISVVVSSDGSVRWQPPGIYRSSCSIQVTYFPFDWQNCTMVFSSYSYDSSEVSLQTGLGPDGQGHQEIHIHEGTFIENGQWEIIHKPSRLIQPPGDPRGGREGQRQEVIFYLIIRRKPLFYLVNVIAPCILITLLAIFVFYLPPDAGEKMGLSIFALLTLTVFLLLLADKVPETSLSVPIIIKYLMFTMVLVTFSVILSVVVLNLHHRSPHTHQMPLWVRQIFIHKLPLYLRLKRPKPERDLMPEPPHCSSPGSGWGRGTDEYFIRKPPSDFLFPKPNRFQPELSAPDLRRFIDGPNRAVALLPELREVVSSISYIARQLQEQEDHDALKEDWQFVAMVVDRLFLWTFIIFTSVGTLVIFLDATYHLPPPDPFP
T2 sequence (P07510 23-517): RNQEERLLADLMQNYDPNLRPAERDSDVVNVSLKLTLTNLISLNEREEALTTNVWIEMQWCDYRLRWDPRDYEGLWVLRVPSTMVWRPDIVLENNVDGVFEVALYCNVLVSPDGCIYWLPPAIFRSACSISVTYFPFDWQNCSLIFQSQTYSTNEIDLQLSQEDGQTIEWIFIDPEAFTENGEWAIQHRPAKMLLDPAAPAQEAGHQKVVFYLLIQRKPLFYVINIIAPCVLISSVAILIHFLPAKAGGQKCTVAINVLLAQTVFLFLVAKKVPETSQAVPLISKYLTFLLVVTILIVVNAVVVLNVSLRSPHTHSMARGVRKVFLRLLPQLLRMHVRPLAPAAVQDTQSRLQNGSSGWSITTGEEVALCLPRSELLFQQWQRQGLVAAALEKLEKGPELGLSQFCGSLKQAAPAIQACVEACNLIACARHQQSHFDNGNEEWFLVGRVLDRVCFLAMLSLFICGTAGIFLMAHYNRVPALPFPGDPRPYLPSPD
T2 sequence (Q07001 22-517): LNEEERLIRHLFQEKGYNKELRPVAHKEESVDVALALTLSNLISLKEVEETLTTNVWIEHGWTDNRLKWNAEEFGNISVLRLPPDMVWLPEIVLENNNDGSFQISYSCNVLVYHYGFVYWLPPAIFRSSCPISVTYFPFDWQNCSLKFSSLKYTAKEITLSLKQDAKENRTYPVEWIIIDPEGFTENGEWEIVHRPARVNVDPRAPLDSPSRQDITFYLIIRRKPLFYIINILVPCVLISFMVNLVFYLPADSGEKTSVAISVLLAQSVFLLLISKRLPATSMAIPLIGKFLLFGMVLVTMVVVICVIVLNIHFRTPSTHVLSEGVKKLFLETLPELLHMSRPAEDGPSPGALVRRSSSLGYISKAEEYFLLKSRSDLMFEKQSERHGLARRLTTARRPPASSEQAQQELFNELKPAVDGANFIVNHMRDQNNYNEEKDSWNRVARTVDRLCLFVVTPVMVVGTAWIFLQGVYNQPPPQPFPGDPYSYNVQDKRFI
Excerpt: as §1
After cells had adhered (generally overnight, but no sooner than 4 h later), the medium was removed and replaced with 250 μL per well of complete medium supplemented with ˜350,000 cpm of ^86Rb^+ (PerkinElmer Life and Analytical Sciences, Boston, Mass.) and counted at 40% efficiency using Cerenkov counting (TriCarb 1900 liquid scintillation analyzer[…]; PerkinElmer Life Sciences).
After at least 4 h and typically overnight, ^86Rb^+ efflux was measured using the “flip-plate” technique. See Lukas, R. J.; Fryer, J. D.; Eaton, J. B.; L., G. C., Some methods for studies of nicotinic acetylcholine receptor pharmacology, in Nicotinic receptors and the Nervous System, Levine, E. D., Ed. CRC Press: Boca Raton, 2002; pp 3-27, incorporated herein by reference in its entirety). Briefly, after aspiration of the bulk of ^86Rb^+ loading medium from each well of the “cell plate,” each well containing cells was rinsed 3× with 2 mL of fresh ^86Rb^+ efflux buffer (130 mM NaCl, 5.4 mM KCl, 2 mM CaCl2, 5 mM glucose, 50 mM HEPES, pH 7.4) to remove extracellular ^86Rb^+. Following removal of residual rinse buffer by aspiration, the flip-plate technique was used again to simultaneously introduce 1.5 mL of fresh efflux buffer containing drugs of choice at indicated final concentrations from a 24-well “efflux/drug plate” into the wells of the cell plate. After a 5 min incubation, the solution was “flipped” back into the efflux/drug plate, and any remaining buffer in the cell plate was removed by aspiration. Cells remaining in the cell plate were lysed and suspended by addition of 1.5 mL of 0.1 M NaOH, 0.1% sodium dodecyl sulfate to each well.
Similarly, the sum of ^86Rb^+ in cell plates and efflux/drug plates also determined the efficiency of ^86Rb^+ loading (the percentage of applied ^86Rb^+ actually loaded into cells).
Specific efflux was then taken as the difference in control samples between total and non-specific ^86Rb^+ efflux. Any intrinsic agonist activity of test drugs was ascertained using samples containing test drug only at different concentrations and was normalized, after subtraction of non-specific efflux, to specific efflux in test drug-free, control samples.

[5] = EC80-EC90 carbamylcholine, read-out: nAChR inhibition IC50 α1*β1
[6] = nAChR inhibition IC50 α1*β1, EC80-EC90 carbamylcholine

Structure (SMILES)	IC50 [1]	AD50 Hot-plate [2]	ED50 [3]	IC50 [4, 5]	IC50 [4, 6]	selectivity for inhibition of NE uptake over α4β2-nAChR function [1]	AD50 Tail-flick [3]
C[C@@H]1N(C)C(C)(C)CO[C@@]1(O)c1ccc(Cl)cc1 [Compound 4v, (2S,3S)-2-(4-Chlorophenyl)-3,4,5,5-tetramethylmorpholin-2-ol]	0.527 ± 0.104 µM	IA (IA: AD50 > 15 mg/kg)	0.32 mg/kg	43 µM	> 33 µM		
COc1ccc([C@]2(O)OCC(C)(C)N[C@H]2C)cc1 [Compound 4k, (2S,3S)-2-(4-Methoxyphenyl)-3,5,5-trimethylmorpholin-2-ol]	> 10 µM	IA (IA: AD50 > 15 mg/kg)	0.019 mg/kg	25 µM			
C[C@@H]1NC(C)(C)CO[C@@]1(O)c1cc(F)cc(F)c1 [Compound 4o, (2S,3S)-2-(3,5-Difluorophenyl)-3,5,5-trimethylmorpholin-2-ol]	0.151 ± 0.043 µM	IA (IA: AD50 > 15 mg/kg)	0.0056 mg/kg	23 µM		42 fold	~0.006 mg/kg
C[C@@H]1NC(C)(C)CO[C@@]1(O)c1ccc(-c2ccccc2)cc1 [Compound 4l, (2S,3S)-2-Biphenyl-4-yl-3,5,5-trimethylmorpholin-2-ol]	10.3 µM	IA (IA: AD50 > 15 mg/kg)	0.021 mg/kg	5.9 µM	5.9 to 19 µM		
C[C@@H]1NC(C)(C)CO[C@@]1(O)c1ccc(Cl)cc1 [Compound 4i, (2S,3S)-2-(4-Chlorophenyl)-3,5,5-trimethylmorpholin-2-ol]	0.83 ± 0.09 µM	IA (IA: AD50 > 15 mg/kg)	0.019 mg/kg	19 µM			
